We go through two compounds from article PMC4303209, “A novel phosphatidylinositol 3-kinase (PI3K) inhibitor directs a potent FOXO-dependent, p53-independent cell cycle arrest phenotype characterized by the differential induction of a subset of FOXO-regulated genes” (Breast Cancer Research : BCR, 2014).

One data set relates to nuclear FOXO3a. Briefly: Immunoblot of nuclear fractions for FOXO3a in MCF-7 or U2OS cells. In kind it is cell-based, human. Conditions: nuclear fractions of treated MCF-7 or U2OS cells. On the procedure: (§1) Figure 1 Cellular response to ETP-45658. […] Seventy-two hours post treatment, MTT assays were conducted. (B) Dose- and time-dependent analysis of Ser473 phosphorylation of AKT phosphorylation by 100nM ETP-45658 or PI-103 treatment. MCF-7 or U2OS cells were treated with the indicated concentrations (μM) of ETP-45658 (or PI-103) for four hours, then total protein was extracted and immunoblotted. For nuclear FOXO analysis, nuclear protein fractions were collected four hours post ETP-45658 (or PI-103) treatment. Nuclear FOXO3a levels were measure by immunoblotting. Nuclear fractions were confirmed by probing for lamin A/C. (C) FACS profile of MCF-7 or U2OS following 100 nM ETP-45658 treatment (20,000 events scored, N = 5). (D) Heat map for the top 100 differentially expressed genes based on hierarchical clustering using Euclidean distance metric. Red and green indicate genes that induced or repressed respectively by ETP-45658 or PI-103. Black indicates no change (N = 4). […] Numbers indicate number of genes that are exclusive to that particular category.

The subject of data set [1] is FOXO3a promoter recruitment in MCF-7 or MDA-MB231 cells. Briefly: Chromatin immunoprecipitation (ChIP) for FOXO3a promoter recruitment. In kind it is cell-based, human. The note with it: by six hours post treatment. On the procedure: Chromatin immunoprecipitation (ChIP) assays were performed essentially the same as described in [28]. Briefly, cells were fixed with 1% formaldehyde, and then whole-cell lysates were prepared. Protein lysate was subjected to ChIP with the indicated antibodies, followed by DNA purification (Invitrogen, Waltham, MA, USA). ChIP-enriched DNA was analyzed by PCR with the indicated primer sets (Table S1 in Additional file 3) purchased from NZYTech (Lisbon, Portugal). Visualization of bands was achieved using a BioRad Chemidoc XRS+ (BioRad) and quantified using the Image Lab software (BioRad).
Figure 5 Chromatin immunoprecipitation analysis for FOXO3a promoter recruitment. (A) Chromatin immunoprecipitation (ChIP) assays for FOXO3a following ETP-45658 treatment at three or six hours of MCF-7 or MDA-MB231 cells for […], CDKN1B, BCL2L11or FASLG. IgG indicates no specific antibody used and for simplicity, only inputs from our MCF-7 samples are shown. (B and C) Quantification of our ChIP gels normalised to inputs from each respective cell line. Error bars indicate standard deviation, N = 3.

For another data set, the system named is MCF-7. In words: Proliferation assay (MTT, 72 hours). In kind it is cell-based. Conditions: Homo sapiens, MCF7. On the procedure: (§2) Cells were seeded in 96-well microtitre plates. Compounds (in DMSO) were added to each well (at a final concentration of 10 μM). The medium was removed from the cells and replaced with 0.2 ml of medium containing either compound for 72 hours and then processed for MTT assay (Promega Corp, Madison, WI, USA) N = 6.
as §1

The test system of another data set is HCT-116. Briefly: Proliferation assay (MTT, 72 hours). In kind it is cell-based. Conditions: Homo sapiens. The protocol:
as §2, §1

Another data set has as its system T47D. Briefly: Proliferation assay (MTT, 72 hours). In kind it is cell-based. The note with it: Homo sapiens. The protocol:
as §2, §1

The subject of the next data set is PC3. Briefly: Proliferation assay (MTT, 72 hours). The note with it: Homo sapiens, PC-3. In kind it is cell-based. On the procedure:
as §2, §1

A further data set concerns NCIH460. Briefly: Proliferation assay (MTT, 72 hours). The note with it: Homo sapiens, NCI-H460. In kind it is cell-based. The protocol: as §2, §1
The next data set concerns MV4.11. In words: Proliferation assay (MTT, 72 hours). In kind it is cell-based. Conditions: Homo sapiens. The protocol: as §2, §1
Details of data set [2]: method as in PMID 17575152. The note with it: cited from earlier work.
For data set [3], the system named is PC3, MCF7, MV4.11, T47D, HCT-116 and NCIH46 cells. In words: cells. In kind it is cell-based. Conditions: Homo sapiens; range over all tested cell lines; MTT 72 hours; read-out: EC50 value for the inhibition of proliferation, inhibitory range.
From the text: We determined the EC50 value for the inhibition of proliferation in each of the following cell lines, PC3, MCF7, MV4.11, T47D, HCT-116 and NCIH46 cells.

Consider `Cn1ncc2c(N3CCOCC3)nc(-c3cccc(O)c3)nc21` [ETP-45658], for which the “nuclear FOXO3a level” value with nuclear FOXO3a was “significant accumulation”. In addition, the “FOXO3a promoter recruitment (CCNG2, CDKN1B, BCL2L11, FASLG)” value in data set [1] is “statistically significant FOXO3a promoter recruitment”.
In the case of `Oc1cccc(-c2nc(N3CCOCC3)c3oc4ncccc4c3n2)c1` [PI-103], the GI50 (in general, the concentration giving 50% growth inhibition) in the data set on MCF-7 came out at 500 nM; with HCT-116, 1670 nM; with T47D, 340 nM; with PC3, 50 nM; in the data set with NCIH460, 1310 nM; with MV4.11, 50 nM. Besides, the aqueous solubility result in data set [2] was “limited aqueous solubility”. Moreover, in data set [3], the EC50 fell in the range of 49 to 1760 nM.
